“And” between values parts separate entries of the source, which are not always exact repeats. Equal values may be shown once.
How the values were obtained:
human serum albumin = human serum albumin (Homo sapiens, UniProt P02768); experiment: Pigment-protein complex formation with human serum albumin; settings: HSA, number of binding positions n=1
Text: Pigment-protein complexes have been formed by adding to the solution of human serum albumin (HAS) a specific amount of photosensitizer dissolved in the same buffer. […] Similarly, the photosensitizer was included in detergent micelle (Triton X-100, C=10^−3M).
wherein r and C are the respectively concentrations of bound and unbound protein pigment, r+C=CΣ. […] It is also applicable with respect to pigment molecules included in Triton X-100 micelle.

HeLa cell culture = experiment: Phototoxicity (photodynamic activity), 3.5 h incubation, 3.3 joule/cm^2; assay type: cell-based; parameters: number of HELA cells relative to the control: unit not given here; settings: photoexposure 3.3 joule/cm^2; for number of HELA cells relative to the control: 3.5 hours incubation
Procedure: To examine the photodynamic effects of a photosensitizer on a HeLa cell culture, the photosensitizer solution was added to the nutrient media at a final concentration of 0.1, 0.5, 1.0, 5.0 or 10 mcg/ml on day 3 after transplanting the cell culture into flasks. The flasks were wrapped with a light protecting cover, and incubated at 37° C. for 3.5 hours. Then, the cells were washed with Hank's solution, and exposed on ice by a laser medical device “LD 680-2000” (wavelength: 670-690 nm) at a dose of 3.3 joule/cm^2. After 20-24 hours, the available cell monolayer was dispersed using a 0.02%-Versene solution, and the number of tumor cells was calculated in Goriaev's chamber. For each point, 3 flasks were used.

[1] = Quenching of excited triplet states by molecular oxygen; assay type: physicochemical
Text: The data presented in Table 2 supports the analysis of specific features of quenching of excited triplet states of chlorin e6-conjugate by molecular oxygen in solutions and biological systems.

[2] = Generation of singlet oxygen (luminescence at 1270 nm); assay type: physicochemical
Procedure: Photoresponse of this process (φΔ) was measured by a relative method through integral intensity of singlet oxygen luminescence at a wavelength of 1270 nm. Excitation was conducted at a wavelength of 531 nm (pulse energy 4 microJ, frequency 1 kHz). Tests were made in air saturated buffer solutions at room temperature. […] The φΔ in D2O was considered as 0.7.
To analyze kinetic curves of singlet oxygen luminescence, the following function was used:
wherein A is a coefficient depending on initial concentrations of interacted reagents, and k1 and k2 are constants of luminescence signal increase and extinction, respectively.
In the case when the deactivation rate constant Kτ of the photosensitizer triplet state exceeds the deactivation rate constant KΔ of the molecular oxygen […] state, the constant of increase k1 corresponds to Kτ, and constant of extinction k2 corresponds to KΔ. In the case of Kτ<KΔ, inversion of the kinetics of singlet oxygen luminescence occurs. In this case, k2=Kτ and k1=KΔ. […] Thus, based on kinetic data, the life times of singlet oxygen and triplet state can be calculated.

Hela cells [3] = experiment: Phototoxicity, 24 h incubation, 1.5-15 joule/cm^2; assay type: cell-based; settings: 670-690 nm
Procedure: In other experiment, the cells were incubated with photosensitizers at 37° C. for 24 hours, and irradiated by exposed on ice by a laser medical device “LD 680-2000” (wavelength of 670-690 nm) in a dose of 1.5-15 joule/cm^2.

Hela cells [4] = experiment: Competition assay with exogenous folic acid, uptake in Hela cells; assay type: cell-based; settings: 4 μM/l folic acid, 24 hours
Text: Then, the sample was centrifuged, the supernatant was taken, and the pellet was rewashed with cooled Hank's solution. The obtained pellet was again transferred into Hank's solution.

HeLa tumor cells = experiment: Cytotoxicity (antiproliferative assay) in the absence of light exposure; assay type: cell-based; settings: for number of HeLa cells: no light, 24 hours
Procedure: Cytotoxicity was analyzed, considering the intensity of proliferative processes in cells, photosensitizer concentration, and dose of optical power. For each point, 3 flasks with cell monolayer were used.
The monolayer culture of HeLa tumor cells was chosen and used as the cell.
The culture of HeLa tumor cells was grown in nutrient medium 199 or in nutrient medium containing hemohydrolyzate supplemented with 10% fetal bovine serum and […] of kanamycin. […]
Flasks with light-protective cover (dark cytotoxicity) were incubated at 37.5° C. for 1 hour. The cells were washed with Hank's solution 4 times. 2.0 ml of fresh nutrient medium were added, and the cells were irradiated at the temperature of melting ice for 5, 10, 15 or 20 mins by the light flux of a “METALAZ” laser medical device (wavelength: 627.8 nm, 578.2 or 510.6 nm) or “LD 680-2000” (wavelength: 670-690 nm), depending on the wavelength of maximum spectral absorption of the studied photosensitizer, at a dose of 40 J/cm^2. After 20-24 hours, the number of tumor cell was counted in Goriaev's chamber.

sarcoma M-1 = experiment: Necrotic area in sarcoma M-1 after PDT; assay type: in vivo, rats; settings: for Necrotic area / Ratio of necrotic area to total area: PDT 100 J/cm^2 at 4 hours, mean of 25 slides
Procedure: 2 hours later the animals were killed by chloroform, the tumor was excised and fixed for one hour in 10%-HOM formalin. After fixation, transverse sections of the tumor nodule in its highest diameter were made, and pictures were taken by a camera connected to a computer.
For quantitative assessment of necroses formed after PDT, computer analysis of color tints of histo-topographic tumor slides was performed using a special program.
The program included an algorithm of blue color identification (Evans blue), which stained viable areas of the tumor. Tumor areas killed from direct cytotoxic effect or due to structural-functional disorders of microcirculation were not stained in blue. The ratio of all non-stained dots to the total amount of dots in the fence of the tumor slide was considered to be the destruction efficiency.
For this purpose, a laser medical instrument “ ? 680-2000” (BIOSPEC, Moscow) was used to perform the exposure at a wavelength of 670 nm in a dose of 100 J/cm^2. The power density was 0.51 W/cm^2, the output power was 0.4 W, and the spot light diameter was 1 cm. Time of exposure was […]. Monitoring over radiating power was conducted by a universal power meter included in the laser device “ ? 4680-2000”.

[5] = air saturated buffer solution, room temperature

Chain of human serum albumin (P02768 25-609): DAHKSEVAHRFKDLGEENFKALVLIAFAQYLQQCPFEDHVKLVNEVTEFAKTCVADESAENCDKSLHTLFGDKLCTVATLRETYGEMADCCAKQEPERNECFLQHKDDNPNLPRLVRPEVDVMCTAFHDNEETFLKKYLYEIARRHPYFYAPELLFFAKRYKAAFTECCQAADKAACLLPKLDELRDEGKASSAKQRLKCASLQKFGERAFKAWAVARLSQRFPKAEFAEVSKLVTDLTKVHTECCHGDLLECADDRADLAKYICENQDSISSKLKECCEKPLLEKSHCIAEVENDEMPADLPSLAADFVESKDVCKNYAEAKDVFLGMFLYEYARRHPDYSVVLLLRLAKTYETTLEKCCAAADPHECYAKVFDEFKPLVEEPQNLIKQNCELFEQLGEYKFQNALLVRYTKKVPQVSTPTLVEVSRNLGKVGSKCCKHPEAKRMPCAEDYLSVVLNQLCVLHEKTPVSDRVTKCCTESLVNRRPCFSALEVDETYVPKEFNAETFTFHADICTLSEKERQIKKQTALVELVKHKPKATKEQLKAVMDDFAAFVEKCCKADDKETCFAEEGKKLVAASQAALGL

[γ-(6-aminohexyl)folic acid]-chlorin e6 [chlorin e6 conjugate]
binding constant κCB with protein (human serum albumin): 1.2e+06 M⁻¹
number of HELA cells relative to the control (HeLa cell culture; 0.1 mcg/ml): 65.1
number of HELA cells relative to the control (HeLa cell culture; 0.5 mcg/ml): 42.3
number of HELA cells relative to the control (HeLa cell culture; 1.0 mcg/ml): 12.6
inhibition of proliferation of Hela cells (HeLa cell culture; 5-10 mcg/ml): fully inhibited the proliferation
number of HELA cells relative to the control (HeLa cell culture; 5.0 mcg/ml): 0.1
bi-molecular rate constant for O2 quenching of the triplet excited state ([1]; Pyridine): 4.5×10^9 M^−1 c^−1
bi-molecular rate constant for O2 quenching of the triplet excited state ([1]; buffer solution): 1.5×10^9 M^−1 c^−1
bi-molecular rate constant for O2 quenching of the triplet excited state ([1]; lipid bilayer): 9×10^9 M^−1 c^−1
bi-molecular rate constant for O2 quenching of the triplet excited state ([1]; micellar complex (Triton X-100), upper limit): 1.5×10^9 M^−1 c^−1
bi-molecular rate constant for O2 quenching of the triplet excited state ([1]; pigment-protein complex, upper limit): 2.5×10^9 M^−1 c^−1
φΔ (efficiency of ^1O2 generation) ([2]; H2O, pH 8.1): 0.70
φΔ (efficiency of ^1O2 generation) ([2]; HSA, H2O, pH 8.1): 0.63-
φΔ (efficiency of ^1O2 generation) ([2]; Pyridine): 0.68
φΔ (efficiency of ^1O2 generation) ([2]; Triton X-100): 0.80
τt (life time of triplet state) from kinetic curves of singlet oxygen luminescence [2, 5]: 2.0±0.2 microsec.
τΔ (life time of singlet oxygen) from kinetic curves of singlet oxygen luminescence [2, 5]: 3.6±0.2 microsec.
photoresponse of photosensitized formation of singlet oxygen ([2]; pH 6.0): 0.52
photoresponse of photosensitized formation of singlet oxygen ([2]; pH 8.1): 0.7
phototoxicity in survival test (Hela cells [3]): improved the photosensitivity
effect of free folic acid on uptake in Hela cells (Hela cells [4]): significantly reduced the uptake
cell survival rate (HeLa tumor cells; Hela cells, 24 hr incubation, absence of light exposure): about 90%
number of HeLa cells (HeLa tumor cells; photosensitizer conc. 1 (μm)): 102.1 percentage of the control
number of HeLa cells (HeLa tumor cells; photosensitizer conc. 2.5 (μm)): 95.6 percentage of the control
number of HeLa cells (HeLa tumor cells; photosensitizer conc. 5.0 (μm)): 94.1 percentage of the control
number of HeLa cells (HeLa tumor cells; photosensitizer conc. 10.0 (μm)): 95.9 percentage of the control
number of HeLa cells (HeLa tumor cells; photosensitizer conc. 20.0 (μm)): 89.0 percentage of the control
number of HeLa cells (HeLa tumor cells; photosensitizer conc. 30.0 (μm)): 86.6 percentage of the control
Necrotic area (sarcoma M-1; 2.5 mg/kg): 0.637 cm^2
Ratio of necrotic area to total area (sarcoma M-1; 2.5 mg/kg): 25.56±1.65% and 25.56%
Necrotic area (sarcoma M-1; 5.0 mg/kg): 0.741 cm^2
Ratio of necrotic area to total area (sarcoma M-1; 5.0 mg/kg): 34.16±2.16% and 34.16%
anti-tumor effect compared among dose and exposure groups (sarcoma M-1; 10.0 mg/kg, 1 hr exposure): most prominent anti-tumor effect
Necrotic area (sarcoma M-1; 10.0 mg/kg): 1.205 cm^2
Ratio of necrotic area to total area (sarcoma M-1; 10.0 mg/kg): 66.16±3.83% and 66.16%
Ratio of necrotic area to total area (sarcoma M-1; 10.0 mg/kg, listed as chlorin e6-folic acid conjugate): 66.16%

From patent US8735439B2, “Chlorin e6-folic acid conjugate, preparation method thereof, and a pharmaceutical composition for the treatment of cancer comprising the same” (Diatech Korea Co., Ltd., priority 2009, dated 2014)
